Laboratory results published in US20070280915A1, “Combination Therapies Employing A Composition Comprising A Hmg Coa Reductase Inhibitor And A Vitamin B6 Related Compound” (priority 2003, published 2007).

Assays:
CYP2B6 = target: T1, CYP2B6 (Homo sapiens, UniProt P20813); test: CYP2B6 inhibition assay (substrate EFC); details: 0.0169 to […] tested, na = concentration-dependent inhibition not observed
T1 sequence (P20813 1-491): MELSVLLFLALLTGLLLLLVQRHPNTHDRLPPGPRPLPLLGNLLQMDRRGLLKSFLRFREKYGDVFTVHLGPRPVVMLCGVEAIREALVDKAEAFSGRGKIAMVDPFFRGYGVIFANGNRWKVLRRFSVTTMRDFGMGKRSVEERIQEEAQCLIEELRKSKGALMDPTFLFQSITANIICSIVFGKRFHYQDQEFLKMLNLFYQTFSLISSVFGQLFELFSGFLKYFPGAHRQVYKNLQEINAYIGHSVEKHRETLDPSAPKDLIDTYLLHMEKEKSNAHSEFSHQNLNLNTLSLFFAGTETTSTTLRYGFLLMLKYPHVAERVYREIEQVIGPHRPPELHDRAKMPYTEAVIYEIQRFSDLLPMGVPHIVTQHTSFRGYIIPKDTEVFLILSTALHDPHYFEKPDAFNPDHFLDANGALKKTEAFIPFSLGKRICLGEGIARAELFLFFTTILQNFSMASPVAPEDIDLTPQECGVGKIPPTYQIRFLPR
Source text: The CYP inhibition assays used microsomes (Supersomes®, Gentest Corp., Woburn, Mass.) prepared from insect cells, each expressing an individual CYP subtype (CYP1A2, CYP2A6, CYP2B6, CYP2C8, CYP2C9, CYP2C19, CYP2D6, CYP2E1 or CYP3A4) expressed from the corresponding human CYP cDNA using a baculovirus expression vector. The microsomes also incorporated supplemental cDNA-expressed human reductase and/or cytochrome b5, as these enzymes stimulate the activity of the CYPs, allowing for a reduction in the amount of enzyme required per reaction (Gentest Corp.). The assays monitored, via fluorescence detection, the formation of a fluorescent metabolite following incubation of the microsomes with a specific CYP substrate. […] Reactions (0.2 mL) were performed in 96-well microtitre plates at 37° C. in the presence of an NADPH regenerating system [NADP+, glucose-6-phosphate (G6P), glucose-6-phosphate dehydrogenase (G6PDH)] and MgCl2. […] All determinations were performed in duplicate. The reagent solutions used for all of the CYP subtype assays, except CYP2C19 and CYP3A4, were prepared by MBDI. For CYP2C19 and CYP3A4, complete reagent kits purchased from Gentest Corp. (CYP2C19/CEC: Cat. No. HTS-4000, Lot No. 1; CYP3A4/BFC: Cat. No. HTS-1000, Lot No. 1) were used to perform the assays.
Eight inhibitor and test compound concentrations were tested using 3-fold serial dilutions. The microtitre plates containing 0.1 mL/well of the latter mixture were pre-warmed to 37° C. in an incubator. […] The amount of metabolic product formed was quantified by fluorescence detection in a fluorescence plate reader utilizing excitation and emission filters that had been optimized for the detection of each metabolite.
Data Analysis—The mean of the duplicate fluorescent signals in the presence and absence (vehicle control) of each compound was calculated and corrected for the background noise. Percent inhibition was calculated as the difference in the corrected fluorescent signals in the absence and presence of the compound, divided by the corrected fluorescent signal in the absence of compound, multiplied by 100%.

CYP2C8 = target: T2, CYP2C8 (Homo sapiens, UniProt P10632); test: CYP2C8 inhibition assay (substrate DBF); details: 0.0169 to […] tested, na = concentration-dependent inhibition not observed
T2 sequence (P10632 1-490): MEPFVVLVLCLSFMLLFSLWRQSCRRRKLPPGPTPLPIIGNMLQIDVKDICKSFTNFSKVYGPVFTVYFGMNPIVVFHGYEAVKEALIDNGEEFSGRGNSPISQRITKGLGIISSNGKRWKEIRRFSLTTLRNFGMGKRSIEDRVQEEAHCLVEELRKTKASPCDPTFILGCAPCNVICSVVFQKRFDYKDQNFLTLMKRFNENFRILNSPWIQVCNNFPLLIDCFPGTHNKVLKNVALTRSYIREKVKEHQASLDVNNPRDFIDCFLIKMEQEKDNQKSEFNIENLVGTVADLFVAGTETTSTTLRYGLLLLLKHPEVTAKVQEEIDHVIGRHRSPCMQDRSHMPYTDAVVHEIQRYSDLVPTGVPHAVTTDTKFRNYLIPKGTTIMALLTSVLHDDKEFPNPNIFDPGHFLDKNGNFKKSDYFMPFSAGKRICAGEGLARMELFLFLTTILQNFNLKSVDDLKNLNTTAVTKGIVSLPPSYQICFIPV
Source text: (§1) The CYP inhibition assays used microsomes (Supersomes®, Gentest Corp., Woburn, Mass.) prepared from insect cells, each expressing an individual CYP subtype (CYP1A2, CYP2A6, CYP2B6, CYP2C8, CYP2C9, CYP2C19, CYP2D6, CYP2E1 or CYP3A4) expressed from the corresponding human CYP cDNA using a baculovirus expression vector. The microsomes also incorporated supplemental cDNA-expressed human reductase and/or cytochrome b5, as these enzymes stimulate the activity of the CYPs, allowing for a reduction in the amount of enzyme required per reaction (Gentest Corp.). The assays monitored, via fluorescence detection, the formation of a fluorescent metabolite following incubation of the microsomes with a specific CYP substrate. […]
(§2) Eight inhibitor and test compound concentrations were tested using 3-fold serial dilutions. […] The amount of metabolic product formed was quantified by fluorescence detection in a fluorescence plate reader utilizing excitation and emission filters that had been optimized for the detection of each metabolite.
(§3) Data Analysis—The mean of the duplicate fluorescent signals in the presence and absence (vehicle control) of each compound was calculated and corrected for the background noise. […]

CYP2C9 = target: T3, CYP2C9 (Homo sapiens, UniProt P11712); test: CYP2C9 inhibition assay (substrate MFC); format: in vitro ADME; details: 0.0169 to […] tested, na = concentration-dependent inhibition not observed
T3 construct: purchased Gentest Corp; host or cells: insect cells (baculovirus)
Experimental: […]. […] All determinations were performed in duplicate.

CYP2C19 = CYP2C19 (Homo sapiens, UniProt P33261); test: CYP2C19 inhibition assay (substrate CEC); details: read-out: Pyridoxal 5′-phosphate IC50, 0.0169 to […] tested, listed as pyridoxal 5′-phosphate
Source text: as §1, §2, §3

CYP2E1 = target: T4, CYP2E1 (Homo sapiens, UniProt P05181); test: CYP2E1 inhibition assay (substrate MFC); format: in vitro ADME; details: 0.0169 to […] tested, na = concentration-dependent inhibition not observed
T4 construct: purchased Gentest Corp; host or cells: insect cells (baculovirus)
Experimental: All determinations were performed in duplicate.

T4 sequence (P05181 whole entry): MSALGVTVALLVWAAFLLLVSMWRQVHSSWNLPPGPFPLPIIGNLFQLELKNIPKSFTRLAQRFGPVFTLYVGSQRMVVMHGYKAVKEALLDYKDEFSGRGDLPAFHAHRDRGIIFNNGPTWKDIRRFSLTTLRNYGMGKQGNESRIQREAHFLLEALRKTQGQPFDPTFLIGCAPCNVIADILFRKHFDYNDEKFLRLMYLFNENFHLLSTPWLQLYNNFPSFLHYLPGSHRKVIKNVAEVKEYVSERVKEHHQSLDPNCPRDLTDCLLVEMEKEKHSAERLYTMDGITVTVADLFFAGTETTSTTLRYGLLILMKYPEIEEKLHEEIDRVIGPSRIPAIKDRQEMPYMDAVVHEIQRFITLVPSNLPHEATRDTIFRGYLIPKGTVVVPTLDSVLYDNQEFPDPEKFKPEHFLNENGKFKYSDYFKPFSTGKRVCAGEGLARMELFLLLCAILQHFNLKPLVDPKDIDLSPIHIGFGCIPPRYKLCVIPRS
Sequence of CYP2C19 (P33261 whole entry): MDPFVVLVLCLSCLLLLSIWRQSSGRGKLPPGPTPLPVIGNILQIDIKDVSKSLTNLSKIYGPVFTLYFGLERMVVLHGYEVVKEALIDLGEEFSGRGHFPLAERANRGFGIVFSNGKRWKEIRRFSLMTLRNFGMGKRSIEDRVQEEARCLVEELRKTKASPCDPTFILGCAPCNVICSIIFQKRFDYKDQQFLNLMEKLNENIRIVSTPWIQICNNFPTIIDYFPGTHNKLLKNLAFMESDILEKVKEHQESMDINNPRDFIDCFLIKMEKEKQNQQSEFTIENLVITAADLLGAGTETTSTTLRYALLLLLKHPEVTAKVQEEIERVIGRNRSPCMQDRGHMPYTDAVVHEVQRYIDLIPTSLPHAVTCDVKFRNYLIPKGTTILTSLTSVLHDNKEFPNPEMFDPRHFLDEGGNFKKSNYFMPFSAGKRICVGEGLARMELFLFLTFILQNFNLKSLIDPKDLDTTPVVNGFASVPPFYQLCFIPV
T3 sequence (P11712 whole entry): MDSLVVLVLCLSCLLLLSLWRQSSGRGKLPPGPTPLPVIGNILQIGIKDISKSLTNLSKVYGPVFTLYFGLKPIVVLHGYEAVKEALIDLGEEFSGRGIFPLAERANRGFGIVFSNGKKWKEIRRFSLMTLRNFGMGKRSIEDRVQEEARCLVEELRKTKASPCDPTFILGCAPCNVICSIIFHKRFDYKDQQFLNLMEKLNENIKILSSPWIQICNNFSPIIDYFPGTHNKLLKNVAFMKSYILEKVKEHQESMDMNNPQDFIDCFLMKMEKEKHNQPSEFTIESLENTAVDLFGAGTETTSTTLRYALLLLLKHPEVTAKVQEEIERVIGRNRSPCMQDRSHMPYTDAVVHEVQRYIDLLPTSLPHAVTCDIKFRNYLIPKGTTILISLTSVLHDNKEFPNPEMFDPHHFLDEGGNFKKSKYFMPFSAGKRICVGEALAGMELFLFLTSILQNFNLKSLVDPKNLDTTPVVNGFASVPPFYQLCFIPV

## Cc1ncc(COP(=O)(O)O)c(C=O)c1O [P5P, pyridoxal-5-phosphate]
CYP2B6
  Pyridoxal 5′-phosphate IC50: did not inhibit
CYP2C8
  Pyridoxal 5′-phosphate IC50: did not inhibit
CYP2C9
  Pyridoxal 5′-phosphate IC50: did not inhibit
CYP2C19
  IC50: ~33 µM
CYP2E1
  Pyridoxal 5′-phosphate IC50: did not inhibit
